The source made the active and inactive calls.
How the values were obtained:
[1] = target: FAD-linked sulfhydryl oxidase ALR (Homo sapiens, UniProt P55789); assay: ALR-catalysed DTT oxidation blockers – biochemical, H2O2 detection, luminescence, cherry-pick, dose response (AID 493248)
Nonstructural protein 1 = Nonstructural protein 1 (Influenza A virus, UniProt Q194T2); assay type: functional, Influenza A virus (A/California/07/2009(H1N1))
[2] = target: T1, Rac GTPase-activating protein 1 (Homo sapiens, UniProt Q9H0H5); assay: blockers of MgcRacGAP-driven Rac1 GTP hydrolysis – biochemical, ADP Hunter fluorescence, primary and confirmatory, confirmation (AID 624330); assay type: functional
T1 sequence (Q9H0H5 whole entry): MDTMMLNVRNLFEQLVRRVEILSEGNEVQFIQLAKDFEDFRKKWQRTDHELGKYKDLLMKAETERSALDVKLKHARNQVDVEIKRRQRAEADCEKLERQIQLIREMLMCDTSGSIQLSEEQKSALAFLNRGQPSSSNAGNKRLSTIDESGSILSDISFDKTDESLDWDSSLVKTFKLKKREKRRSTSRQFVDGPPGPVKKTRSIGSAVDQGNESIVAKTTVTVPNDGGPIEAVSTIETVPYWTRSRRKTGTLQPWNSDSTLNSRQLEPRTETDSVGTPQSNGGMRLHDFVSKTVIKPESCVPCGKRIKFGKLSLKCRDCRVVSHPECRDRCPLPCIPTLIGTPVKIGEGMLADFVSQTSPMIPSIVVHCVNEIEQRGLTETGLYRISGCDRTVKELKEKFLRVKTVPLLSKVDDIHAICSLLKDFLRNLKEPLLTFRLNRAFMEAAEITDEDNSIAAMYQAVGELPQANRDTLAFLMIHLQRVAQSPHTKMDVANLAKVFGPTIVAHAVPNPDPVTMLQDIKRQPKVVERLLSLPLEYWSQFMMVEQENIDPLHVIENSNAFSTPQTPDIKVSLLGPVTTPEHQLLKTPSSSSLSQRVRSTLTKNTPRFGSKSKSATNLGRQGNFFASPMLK

[3] = microbe, parasite or virus in culture; assay type: functional; conditions: Mycobacterium tuberculosis
Cytochrome P450 1A2 = target: T2, Cytochrome P450 1A2 (Homo sapiens, UniProt P05177);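 further: PubChem cytochrome P450 panel assay, CYP1A2 panel member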
T2 sequence (P05177 whole entry): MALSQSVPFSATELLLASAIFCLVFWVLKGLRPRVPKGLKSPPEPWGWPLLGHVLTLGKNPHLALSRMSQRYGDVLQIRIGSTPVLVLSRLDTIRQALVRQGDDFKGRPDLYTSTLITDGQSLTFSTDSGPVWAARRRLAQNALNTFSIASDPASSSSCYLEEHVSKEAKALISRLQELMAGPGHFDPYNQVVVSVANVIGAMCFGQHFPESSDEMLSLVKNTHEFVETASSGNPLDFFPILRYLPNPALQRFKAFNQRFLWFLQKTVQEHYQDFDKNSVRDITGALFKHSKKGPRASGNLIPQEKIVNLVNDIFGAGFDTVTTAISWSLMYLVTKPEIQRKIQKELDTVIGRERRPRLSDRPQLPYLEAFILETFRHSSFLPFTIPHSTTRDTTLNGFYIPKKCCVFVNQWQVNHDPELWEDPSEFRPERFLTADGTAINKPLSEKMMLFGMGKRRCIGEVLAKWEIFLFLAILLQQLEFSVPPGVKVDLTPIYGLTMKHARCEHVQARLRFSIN

[4] = Trypanosoma cruzi growth suppression in host cells – NIH3T3 host cells, beta-gal luminescence, confirmation (AID 2044); assay type: functional, cell-based;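 further: intracellular parasites grown in NIH/3T3 mouse fibroblasts as host cells; luminescent beta-galactosidase reporter signal from transgenic T. cruzi replicating inside host cells; inhibitors lower the luminescence signal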
[5] = NIH3T3 cell viability loss – ATP luminescence, mouse fibroblasts, counter-screen, dose response (AID 2010); assay type: functional, cell-based;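 further: cells exposed to compound for about 90 hours before reading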
[6] = target: Voltage-dependent T-type calcium channel subunit alpha-1H (Homo sapiens, UniProt O95180); assay type: functional;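 further: channel activity triggered by adding a high calcium stimulation buffer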
Chain of Voltage-dependent T-type calcium channel subunit alpha-1H (O95180 whole entry): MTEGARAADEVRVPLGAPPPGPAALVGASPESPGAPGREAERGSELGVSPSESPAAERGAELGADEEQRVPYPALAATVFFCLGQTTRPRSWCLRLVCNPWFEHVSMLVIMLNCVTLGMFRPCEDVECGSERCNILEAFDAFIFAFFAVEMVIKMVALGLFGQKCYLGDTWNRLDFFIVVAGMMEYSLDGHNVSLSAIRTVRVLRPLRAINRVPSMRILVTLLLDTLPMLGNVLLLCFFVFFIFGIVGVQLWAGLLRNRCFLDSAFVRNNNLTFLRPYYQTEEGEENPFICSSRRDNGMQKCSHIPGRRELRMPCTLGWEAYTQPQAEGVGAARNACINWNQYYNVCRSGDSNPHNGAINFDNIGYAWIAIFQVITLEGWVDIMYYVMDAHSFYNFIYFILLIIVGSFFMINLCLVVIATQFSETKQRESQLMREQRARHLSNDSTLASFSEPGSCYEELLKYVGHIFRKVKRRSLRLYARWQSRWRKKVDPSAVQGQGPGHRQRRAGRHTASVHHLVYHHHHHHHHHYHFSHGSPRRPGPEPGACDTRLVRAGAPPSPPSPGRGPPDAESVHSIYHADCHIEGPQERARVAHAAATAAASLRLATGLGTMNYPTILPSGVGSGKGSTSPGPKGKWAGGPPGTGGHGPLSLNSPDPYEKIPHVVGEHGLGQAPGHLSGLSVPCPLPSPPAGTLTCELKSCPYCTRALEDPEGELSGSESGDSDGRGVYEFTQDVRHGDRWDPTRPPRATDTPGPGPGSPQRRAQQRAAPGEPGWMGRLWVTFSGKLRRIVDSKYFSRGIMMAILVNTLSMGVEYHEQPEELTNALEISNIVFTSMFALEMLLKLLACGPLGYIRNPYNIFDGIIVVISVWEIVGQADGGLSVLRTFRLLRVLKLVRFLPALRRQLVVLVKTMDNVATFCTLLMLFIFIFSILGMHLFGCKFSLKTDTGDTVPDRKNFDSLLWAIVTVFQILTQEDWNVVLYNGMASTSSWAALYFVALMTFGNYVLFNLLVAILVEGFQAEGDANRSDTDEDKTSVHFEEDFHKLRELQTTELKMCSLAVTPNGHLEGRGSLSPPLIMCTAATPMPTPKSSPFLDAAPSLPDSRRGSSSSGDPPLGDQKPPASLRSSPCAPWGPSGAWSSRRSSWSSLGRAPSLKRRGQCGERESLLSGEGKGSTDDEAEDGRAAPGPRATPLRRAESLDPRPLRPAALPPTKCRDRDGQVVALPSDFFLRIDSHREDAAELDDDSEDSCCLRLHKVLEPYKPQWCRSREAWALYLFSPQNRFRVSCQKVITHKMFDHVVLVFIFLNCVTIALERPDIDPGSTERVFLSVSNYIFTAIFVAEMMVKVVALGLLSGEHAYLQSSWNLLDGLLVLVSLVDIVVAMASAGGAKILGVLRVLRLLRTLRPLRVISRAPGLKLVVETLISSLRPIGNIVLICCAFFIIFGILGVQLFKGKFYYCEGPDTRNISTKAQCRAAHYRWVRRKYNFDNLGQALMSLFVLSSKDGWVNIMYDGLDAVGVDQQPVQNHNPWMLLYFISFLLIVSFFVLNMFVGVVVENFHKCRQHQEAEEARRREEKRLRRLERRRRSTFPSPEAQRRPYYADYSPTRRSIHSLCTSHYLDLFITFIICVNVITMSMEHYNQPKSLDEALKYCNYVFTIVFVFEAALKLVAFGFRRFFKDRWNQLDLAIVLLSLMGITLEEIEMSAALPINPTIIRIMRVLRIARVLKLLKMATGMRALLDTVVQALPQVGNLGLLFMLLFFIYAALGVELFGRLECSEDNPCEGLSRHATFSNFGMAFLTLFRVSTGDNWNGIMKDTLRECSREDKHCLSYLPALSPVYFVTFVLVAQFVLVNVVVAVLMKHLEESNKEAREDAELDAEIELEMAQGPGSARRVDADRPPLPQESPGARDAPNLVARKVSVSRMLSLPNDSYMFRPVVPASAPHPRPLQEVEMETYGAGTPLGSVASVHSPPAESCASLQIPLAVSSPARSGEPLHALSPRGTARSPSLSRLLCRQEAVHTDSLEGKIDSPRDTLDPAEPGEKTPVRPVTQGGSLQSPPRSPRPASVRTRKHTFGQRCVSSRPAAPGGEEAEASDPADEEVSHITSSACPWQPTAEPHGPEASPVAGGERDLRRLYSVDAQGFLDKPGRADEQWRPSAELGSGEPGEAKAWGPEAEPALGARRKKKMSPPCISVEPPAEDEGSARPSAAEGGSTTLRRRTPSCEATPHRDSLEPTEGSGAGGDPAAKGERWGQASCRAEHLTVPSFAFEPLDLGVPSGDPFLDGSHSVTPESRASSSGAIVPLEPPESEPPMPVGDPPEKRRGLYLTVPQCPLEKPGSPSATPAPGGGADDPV

[7] = NIH-3T3 fibroblast cytotoxicity, dose response, cytotoxicity control, cell-based, fluorescence, Alamar Blue, secondary assay (AID 2327); assay type: functional;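 further: NIH-3T3 mouse fibroblasts cultured with fluconazole at 8 µg/mL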
[8] = tested on: Streptococcus sp. 'group A'; assay: Streptococcus pyogenes SK(-)GAS viability under kanamycin – luminescence, BacTiterGlo, confirmation, counter-screen for streptokinase expression inhibitor project, dose response (AID 1900); assay type: functional, organism-based
[9] = fluconazole-exposed Candida albicans growth modulators – fluorescence, retest, confirmation (AID 2467); assay type: functional, cell-based
Streptococcus = assay: GAS UMAA2166 growth inhibition – luminescence, BacTiterGlo, counter-screen for streptokinase expression inhibitor project, dose response (AID 1915); assay type: functional, organism-based;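 further: potency for reduction of bacterial viability or growth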
[10] = target: T3, Polyadenylate-binding protein 1 (Homo sapiens, UniProt P11940); assay: MLLE binding blockers, Cy5 peptide tracer – biochemical, fluorescence polarization, Cy5-PAM2 peptide, secondary, miRNA deadenylation inhibitor project, dose response (AID 602260); assay type: functional; conditions: read-out: IC50_Mean
T3 sequence (P11940 whole entry, the tested form may be a part): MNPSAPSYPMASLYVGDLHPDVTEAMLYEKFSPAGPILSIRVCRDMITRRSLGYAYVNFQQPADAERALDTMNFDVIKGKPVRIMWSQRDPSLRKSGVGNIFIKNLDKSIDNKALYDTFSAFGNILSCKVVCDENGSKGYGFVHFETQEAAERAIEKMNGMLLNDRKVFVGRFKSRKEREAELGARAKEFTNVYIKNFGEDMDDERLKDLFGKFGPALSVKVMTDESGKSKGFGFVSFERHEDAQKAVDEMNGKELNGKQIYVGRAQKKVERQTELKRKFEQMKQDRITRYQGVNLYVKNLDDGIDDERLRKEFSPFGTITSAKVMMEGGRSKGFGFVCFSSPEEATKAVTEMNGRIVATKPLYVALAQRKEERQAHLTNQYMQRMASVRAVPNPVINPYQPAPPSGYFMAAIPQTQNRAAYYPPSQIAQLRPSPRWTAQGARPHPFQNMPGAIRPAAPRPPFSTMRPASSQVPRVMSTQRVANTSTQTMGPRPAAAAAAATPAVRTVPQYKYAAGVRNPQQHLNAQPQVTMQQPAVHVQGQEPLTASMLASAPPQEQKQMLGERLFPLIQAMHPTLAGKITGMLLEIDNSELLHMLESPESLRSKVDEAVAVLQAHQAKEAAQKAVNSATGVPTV

[11] = target: T3, Polyadenylate-binding protein 1; assay: MLLE domain peptide-binding blockers, IC50 – biochemical, fluorescence polarization, FITC-PAM2 peptide, dose response (AID 602259); assay type: functional; conditions: read-out: IC50_Mean
[12] = target: T4, Carboxy-terminal domain RNA polymerase II polypeptide A small phosphatase 1 (Homo sapiens, UniProt Q9GZU7); assay: CTDSP1 inhibitors, concentration-response, biochemical, absorbance readout, ultra-high-throughput screen actives (AID 540297); assay type: functional
T4 sequence (Q9GZU7 whole entry): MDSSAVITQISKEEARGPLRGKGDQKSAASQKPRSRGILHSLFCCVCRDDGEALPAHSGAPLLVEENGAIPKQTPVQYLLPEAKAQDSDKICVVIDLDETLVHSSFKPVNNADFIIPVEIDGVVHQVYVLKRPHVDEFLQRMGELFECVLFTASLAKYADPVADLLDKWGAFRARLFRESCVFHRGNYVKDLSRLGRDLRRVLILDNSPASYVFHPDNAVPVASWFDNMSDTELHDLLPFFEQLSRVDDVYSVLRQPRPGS

[13] = Luminescence Cell-Based Dose Confirmation HTS to Identify Activators of 5'UTR Stem-Loop Driven Alpha-Synuclein mRNA Translation in H4 Neuroglioblastoma Cells. [Related pubchem assays: 1829 (Project Summary), 1814 (Primary HTS)]; assay type: functional
[14] = Luminescence Cell-Based Dose Response HTS to Identify Activators of Luciferase Translation or Activity in H4 […] Cells. [Related pubchem assays: 1829 (Project Summary), 1814 (Primary HTS)]; assay type: functional
H4 = assay: Luminescence Cell-Based Dose Response HTS to Identify Activators of 5'UTR Stem-Loop Driven Prion Protein mRNA Translation in H4 Neuroglioblastoma Cells. [Related pubchem assays: 1829 (Project Summary), 1814 (Primary HTS)]; assay type: functional; conditions: Homo sapiens
INS1 = assay: INS-1E survival protection against cytokine death – cell-based, luminescence, retest, dose response (AID 449756); assay type: functional; conditions: Rattus norvegicus;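 further: cell death triggered by IL-1 beta plus TNF-alpha plus IFN-gamma mixture; protective hits raise ATP signal compared with cytokine alone wells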
[15] = target: Induced myeloid leukemia cell differentiation protein Mcl-1 (Homo sapiens, UniProt Q07820); assay type: functional
Chain of Induced myeloid leukemia cell differentiation protein Mcl-1 (Q07820 whole entry): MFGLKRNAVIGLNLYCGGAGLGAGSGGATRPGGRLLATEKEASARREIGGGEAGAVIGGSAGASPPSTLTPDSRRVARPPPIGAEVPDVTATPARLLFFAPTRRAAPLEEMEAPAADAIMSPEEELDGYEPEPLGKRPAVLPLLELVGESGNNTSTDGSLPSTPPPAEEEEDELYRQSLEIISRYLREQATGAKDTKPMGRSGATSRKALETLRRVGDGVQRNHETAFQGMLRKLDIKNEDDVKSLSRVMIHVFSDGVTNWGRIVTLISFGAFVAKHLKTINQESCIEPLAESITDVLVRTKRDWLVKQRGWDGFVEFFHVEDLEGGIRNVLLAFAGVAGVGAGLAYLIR

[16] = target: T5, Heat shock factor protein 1 (Mus musculus, UniProt P38532); assay: decrease of HSF1-responsive luciferase luminescence – cell-based, NIH3T3, dose retest, confirmation (AID 2382); assay type: functional;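 further: NIH3T3 fibroblasts with HSF1-driven luciferase reporter stressed by proteasome inhibitor MG132; luminescence from HSF1-driven luciferase expression after 8 hours of MG132 stress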
T5 sequence (P38532 whole entry): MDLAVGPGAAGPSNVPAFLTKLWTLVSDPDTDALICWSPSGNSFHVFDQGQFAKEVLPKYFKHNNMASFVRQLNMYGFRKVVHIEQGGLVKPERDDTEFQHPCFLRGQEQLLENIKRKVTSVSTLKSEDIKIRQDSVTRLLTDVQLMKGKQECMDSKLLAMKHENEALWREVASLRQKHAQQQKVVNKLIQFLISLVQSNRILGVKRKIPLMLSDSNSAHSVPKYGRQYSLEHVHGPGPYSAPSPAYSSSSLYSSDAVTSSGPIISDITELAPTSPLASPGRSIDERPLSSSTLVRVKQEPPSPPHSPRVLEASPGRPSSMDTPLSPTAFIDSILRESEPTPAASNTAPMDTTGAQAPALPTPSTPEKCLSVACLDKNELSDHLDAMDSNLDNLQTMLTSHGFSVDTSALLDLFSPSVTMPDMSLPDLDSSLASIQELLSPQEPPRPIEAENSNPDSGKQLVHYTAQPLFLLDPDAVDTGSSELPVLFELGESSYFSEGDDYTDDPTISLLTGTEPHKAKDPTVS

[17] = P. falciparum Dd2 growth inhibitors, dose response, SYBR Green, cherry-picked samples (AID 1159567); assay type: functional, cell-based

Chain of FAD-linked sulfhydryl oxidase ALR (P55789 whole entry): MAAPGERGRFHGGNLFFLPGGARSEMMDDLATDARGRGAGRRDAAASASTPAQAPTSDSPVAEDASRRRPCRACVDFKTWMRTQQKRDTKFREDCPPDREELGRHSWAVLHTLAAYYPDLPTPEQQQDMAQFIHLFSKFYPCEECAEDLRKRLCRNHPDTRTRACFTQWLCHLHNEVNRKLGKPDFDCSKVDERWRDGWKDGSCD
Chain of Nonstructural protein 1 (Q194T2 whole entry): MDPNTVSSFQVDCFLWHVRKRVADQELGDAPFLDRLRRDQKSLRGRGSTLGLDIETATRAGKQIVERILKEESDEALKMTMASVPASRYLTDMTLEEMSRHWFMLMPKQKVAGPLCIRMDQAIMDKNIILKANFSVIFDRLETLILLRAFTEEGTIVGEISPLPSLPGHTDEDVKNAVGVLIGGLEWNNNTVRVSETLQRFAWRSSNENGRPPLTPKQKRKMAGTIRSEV

Compound: Cc1ccc2nc(-c3cccc(S(=O)(=O)N(C)C)c3)cn2c1
- AC50 [1]: 45 nM (active)

Compound: Cc1c(NN=C2C(=O)NC(=O)NC2=O)c(=O)n(-c2ccccc2)n1C
- IC50 (Nonstructural protein 1): 2.12 µM (active)

Compound: CC(=O)N1CCN(c2ccc(NCc3ccc(Br)o3)cc2)CC1
- AC50 [1]: 743 nM (active)
- IC50 [2]: 13.7 µM (active)

Compound: Cc1cc(C(=O)N[C@H](c2ccccc2)[C@@]2(C)C[C@@H]2[C@@H](C)C(=O)Nc2ccc3ccccc3c2)n(C)n1
- CC50 [3]: > 40 µM (active)
- AC50 (Cytochrome P450 1A2): 20 µM (inconclusive)

Compound: CCOC(=O)c1cc(C)nc(Sc2ccc(C)cc2)c1C#N
- CC50 [3]: > 40 µM (active)

Compound: CCC(C)(C)n1nnnc1C(c1ccncc1)N1CCC(Cc2ccccc2)CC1 (stereo not given)
- EC50 [4]: 1.06 µM (active)
- EC50 [5]: > 60 µM (not active)
- EC50 [6]: 9.75 µM (active)

Compound: COc1ccc(C(C(O)C(=O)c2c[nH]c3ccccc23)N2CCN(c3ccc(OC)cc3)CC2)cc1 (stereo not given)
- CC50 [3]: > 40 µM (active)

Compound: Oc1ccccc1N1CCN(c2nnnn2-c2ccccc2)CC1
- AC50 [1]: 7830 nM (active)

Compound: Cc1ccc(O)c(C(=O)CC(=O)c2ccccc2Cl)c1
- EC50 [7]: > 160 µM (inactive)
- EC50 [8]: 4.15 µM (active)
- EC50 [9]: 2.52 µM (active)
- CC50 [3]: 24.4 µM (active)
- EC50 (Streptococcus): 9.81 µM (active)

Compound: CC(=O)Nc1ccc(S(=O)(=O)NC(C)C(=O)NC(C)c2ccccc2)cc1 (stereo not given)
- AC50 [1]: 83 nM (active)
- IC50 [10]: > 66 µM (inactive)
- IC50 [11]: > 66 µM (inactive)

Compound: COc1cccc(N2CCN(C3CC(=O)N(c4ccc(Cl)c(Cl)c4)C3=O)CC2)c1 (stereo not given)
- EC50 [6]: 6.84 µM (active)

Compound: O=C(O)c1ccc(CSc2nc3ccc(NC(=O)c4ccccc4C(=O)O)cc3s2)cc1
- IC50 [12]: 6.66 µM (active)

Compound: O=C(NCc1nnc(S)n1-c1ccc(Br)cc1)c1ccc(S(=O)(=O)N2CCCC2)cc1
- AC50 [1]: 6960 nM (active)

Compound: Cc1ccc(NC(=O)CSCC(=O)N2c3ccccc3CCc3ccccc32)cc1
- EC50 [6]: 4.65 µM (active)

Compound: Cc1ccccc1CSCCNC(=O)CCSc1ccccc1
- EC50 [6]: 3.24 µM (active)

Compound: CN(C)c1ccc(N=Nc2cccc(F)c2)cc1
- IC50 (Nonstructural protein 1): 25 µM (active)

Compound: Cn1cc(C(=O)c2ccc(Cl)cc2Cl)cc1C(=O)NN=C(N)COc1ccccc1
- EC50 [6]: 3.97 µM (active)

Compound: O=C(CSc1ccc(-c2ccccn2)nn1)c1ccccc1
- EC50 [13]: > 120 µM (not active)
- EC50 [14]: 8.47 µM (active)
- EC50 (H4): 56.6 µM (active)
- IC50 (Nonstructural protein 1): 10.9 µM (active)

Compound: CC1CCN(C(=O)CSCC(=O)Nc2nc(-c3cccs3)cs2)CC1
- EC50 [6]: 2.23 µM (active)

Compound: O=C(O)CCCCCNc1nc(S)nc2ccccc12
- AC50 [1]: 7380 nM (active)

Compound: Nc1c(N(CCC2=CCCCC2)C(=O)c2ccc([N+](=O)[O-])o2)c(=O)[nH]c(=O)n1Cc1ccccc1
- EC50 [4]: 0.345 µM (active)
- CC50 [3]: > 40 µM (active)
- EC50 [5]: > 60 µM (not active)

Compound: C=C(C)C(=O)OCC(O)COc1ccc(C(C)(C)c2ccc(OCC(O)COC(=O)C(=C)C)cc2)cc1 (stereo not given)
- CC50 [3]: > 40 µM (active)
- AC50 (INS1): 15 µM (active)

Compound: COc1ccc2nc(NC(=O)C3CCCN3S(=O)(=O)c3ccc(C)cc3)sc2c1 (stereo not given)
- EC50 [6]: 57.5 µM (active)

Compound: O=[N+]([O-])c1c(O)nc(/C=C\c2cccc(Cl)c2)nc1O
- AC50 [1]: 737 nM (active)

Compound: NC(=O)COc1ccc(/C=N\NC(=O)c2ccc(-c3ccccc3)cc2)cc1
- IC50 [12]: 6.66 µM (active)

Compound: COc1ccc(C(=O)n2nc(C)c(Br)c2C)cc1
- IC50 [15]: 2.84 µM (not active)

Compound: O=C(N/N=C/c1ccccc1O)C(=O)Nc1ccccn1
- IC50 (Nonstructural protein 1): 10.8 µM (active)

Compound: CC(C)n1cc(/C=N/Nc2ccc(C(=O)O)cc2)c2ccccc21
- EC50 [16]: < 160 nM (active)
- AC50 [1]: 192 nM (active)

Compound: COc1cc(CN2CC3(CN(C(=O)CN4CCOCC4)C3)c3c(n(C)c4cc(OC)ccc34)[C@@H]2CO)cc(OC)c1
- AC50 [17]: 6.16 µM (active)

Compound: O=C(c1ccc(F)cc1)N1CC(=O)N2[C@H](CO)[C@@H](c3ccc(/C=C/c4ccccc4)cc3)[C@@H]2C1
- AC50 [17]: 3.9 µM (active)

Compound: C[C@H](CO)N1C[C@H](C)[C@H](CN(C)C(=O)Nc2ccc(F)cc2)Oc2cc(/C=C/c3ccccc3)ccc2S1(=O)=O
- AC50 [17]: 5.46 µM (active)

Compound: O=C(C1CC1)N1CC(=O)N2[C@H](CO)[C@@H](c3ccc(C#CCc4ccccc4)cc3)[C@@H]2C1
- AC50 [17]: 5.44 µM (active)

Compound: COc1ccc2c3c(n(C)c2c1)[C@H](CO)N(C(=O)Nc1ccc(F)cc1)CC31CCN(C(=O)c2cccnc2)CC1
- AC50 [17]: 4.52 µM (active)
